Reference: ChEMBL document CHEMBL2434882, “A novel [1,2,4] triazolo [1,5-a] pyrimidine-based phenyl-linked steroid dimer: synthesis and its cytotoxic activity” (Eur J Med Chem, 2013)
Calls of active or inactive are those of the source. No cut-off for these calls is given here.

How the values were obtained:
[1] = test system: ECa-109 cell line; assay: Induction of apoptosis in human EC109 cells assessed as late apoptotic cells at 40 uM after 24 hrs by annexin V-FITC/propidium iodide staining-based flow cytometric analysis (reference value: 2.5%); type: functional
[2] = test system: ECa-109 cell line; assay: Induction of apoptosis in human EC109 cells assessed as early apoptotic cells at 40 uM after 24 hrs by annexin V-FITC/propidium iodide staining-based flow cytometric analysis (reference value: 3.8%); type: functional
[3] = test system: ECa-109 cell line; assay: Induction of apoptosis in human EC109 cells assessed as damaged cells at 2.5 uM after 12 hrs by annexin V-FITC/propidium iodide staining-based flow cytometric analysis (reference value: 0.4%); type: functional
[4] = Cell cycle arrest in human EC109 cells assessed as accumulation at G0/G1 phase at 5 uM after 12 hrs by propidium iodide staining-based flow cytometric analysis (reference value: 50.87%); type: functional; conditions: ECa-109
[5] = test system: ECa-109 cell line; assay: Induction of apoptosis in human EC109 cells assessed as live cells at 20 uM after 12 hrs by annexin V-FITC/propidium iodide staining-based flow cytometric analysis (reference value: 92.1%); type: functional
[6] = test system: ECa-109 cell line; assay: Induction of apoptosis in human EC109 cells assessed as damaged cells at 10 uM after 24 hrs by annexin V-FITC/propidium iodide staining-based flow cytometric analysis (reference value: 0.1%); type: functional
[7] = Cell cycle arrest in human EC109 cells assessed as accumulation at G2/M phase at 2.5 uM after 24 hrs by propidium iodide staining-based flow cytometric analysis (reference value: 6.31%); type: functional; conditions: ECa-109
[8] = test system: ECa-109 cell line; assay: Induction of apoptosis in human EC109 cells assessed as damaged cells at 5 uM after 24 hrs by annexin V-FITC/propidium iodide staining-based flow cytometric analysis (reference value: 0.1%); type: functional
[9] = test system: ECa-109 cell line; assay: Induction of apoptosis in human EC109 cells assessed as live cells at 10 uM after 12 hrs by annexin V-FITC/propidium iodide staining-based flow cytometric analysis (reference value: 92.1%); type: functional
[10] = test system: ECa-109 cell line; assay: Induction of apoptosis in human EC109 cells assessed as early apoptotic cells at 20 uM after 12 hrs by annexin V-FITC/propidium iodide staining-based flow cytometric analysis (reference value: 6.1%); type: functional
[11] = test system: ECa-109 cell line; assay: Induction of apoptosis in human EC109 cells assessed as activation of caspase-3/9 at 5 to 10 uM after 24 hrs by Western blot analysis; type: functional, cell-based
[12] = test system: ECa-109 cell line; assay: Induction of apoptosis in human EC109 cells assessed as live cells at 40 uM after 12 hrs by annexin V-FITC/propidium iodide staining-based flow cytometric analysis (reference value: 92.1%); type: functional

C[C@]12CC[C@H](O)CC1=CC[C@@H]1[C@@H]2CC[C@]2(C)c3nc4ncnn4c(-c4cccc(-c5c6c(nc7ncnn57)[C@@]5(C)CC[C@H]7[C@@H](CC=C8C[C@@H](O)CC[C@@]87C)[C@@H]5C6)c4)c3C[C@@H]12
Activity [1]: 78.4%
Activity [2]: 12%
Activity [3]: 1.7%
Activity [4]: 52.9%
Activity [5]: 12.8%
Activity [6]: 2.9%
Activity [7]: 14.8%
Activity [8]: 0.4%
Activity [9]: 54%
Activity [10]: 34%
Activity [11]: Active
Activity [12]: 14.6%
